Experimental data from publication PMC6009943, “One-pot three-component synthesis of novel spirooxindoles with potential cytotoxic activity against triple-negative breast cancer MDA-MB-231 cells” (Journal of Enzyme Inhibition and Medicinal Chemistry, 2017).
Read-outs that look alike come from different tables or passages of the source.

What was measured:
MDA-MB-231 cells = assay: In vitro anti-proliferative activity assay (MTT); assay type: cell-based; details: Homo sapiens, 48 h incubation
Method: Cells lines were maintained as monolayers in Dulbecco’s Modified Eagle’s Medium (DMEM) supplemented with 10% FBS, 2 mM L-glutamine, 100 U/ml penicillin and 100 µg/ml streptomycin sulfate. Cells were sub-cultured with trypsine/EDTA solution, counted with haemocytometer and plated onto 96-well plates (5000 cells/well) and left overnight to form a semi-confluent monolayer. […] DMSO (100 µl/well) was added to dissolve the formazan crystals with shaking for 10 min after which the absorbance was read at 590 nm against no cell blanks on a FLuo Star Optima microplate reader (BMG Technologies, Germany). Cell proliferation was calculated comparing the OD values of the DMSO control wells and those of the samples represented as % proliferation to the control.
The in vitro anti-proliferative activity of the newly synthesized spirooxindoles 6a–p was examined against TNBC MDA-MB-231 cells. This assay was performed utilizing the 3–(4,5-dimethylthiazol-2-yl)-2,5-diphenyltetrazolium bromide (MTT) colorimetric assay as described by Mosmann[18]. Adriamycin was included in this assay as a reference drug.

[1] = system: MDA-MB-231 cancer cell line; details: cited from earlier work
EGFR = target: T1, EGFR (Homo sapiens, UniProt P00533); assay: EGFR kinase ELISA assay; assay type: biochemical; details: colorimetric ELISA, mean ± SD of three separate experiments
T1 construct: purchased BPS Biosciences 40321
T1 sequence (P00533 25-1210): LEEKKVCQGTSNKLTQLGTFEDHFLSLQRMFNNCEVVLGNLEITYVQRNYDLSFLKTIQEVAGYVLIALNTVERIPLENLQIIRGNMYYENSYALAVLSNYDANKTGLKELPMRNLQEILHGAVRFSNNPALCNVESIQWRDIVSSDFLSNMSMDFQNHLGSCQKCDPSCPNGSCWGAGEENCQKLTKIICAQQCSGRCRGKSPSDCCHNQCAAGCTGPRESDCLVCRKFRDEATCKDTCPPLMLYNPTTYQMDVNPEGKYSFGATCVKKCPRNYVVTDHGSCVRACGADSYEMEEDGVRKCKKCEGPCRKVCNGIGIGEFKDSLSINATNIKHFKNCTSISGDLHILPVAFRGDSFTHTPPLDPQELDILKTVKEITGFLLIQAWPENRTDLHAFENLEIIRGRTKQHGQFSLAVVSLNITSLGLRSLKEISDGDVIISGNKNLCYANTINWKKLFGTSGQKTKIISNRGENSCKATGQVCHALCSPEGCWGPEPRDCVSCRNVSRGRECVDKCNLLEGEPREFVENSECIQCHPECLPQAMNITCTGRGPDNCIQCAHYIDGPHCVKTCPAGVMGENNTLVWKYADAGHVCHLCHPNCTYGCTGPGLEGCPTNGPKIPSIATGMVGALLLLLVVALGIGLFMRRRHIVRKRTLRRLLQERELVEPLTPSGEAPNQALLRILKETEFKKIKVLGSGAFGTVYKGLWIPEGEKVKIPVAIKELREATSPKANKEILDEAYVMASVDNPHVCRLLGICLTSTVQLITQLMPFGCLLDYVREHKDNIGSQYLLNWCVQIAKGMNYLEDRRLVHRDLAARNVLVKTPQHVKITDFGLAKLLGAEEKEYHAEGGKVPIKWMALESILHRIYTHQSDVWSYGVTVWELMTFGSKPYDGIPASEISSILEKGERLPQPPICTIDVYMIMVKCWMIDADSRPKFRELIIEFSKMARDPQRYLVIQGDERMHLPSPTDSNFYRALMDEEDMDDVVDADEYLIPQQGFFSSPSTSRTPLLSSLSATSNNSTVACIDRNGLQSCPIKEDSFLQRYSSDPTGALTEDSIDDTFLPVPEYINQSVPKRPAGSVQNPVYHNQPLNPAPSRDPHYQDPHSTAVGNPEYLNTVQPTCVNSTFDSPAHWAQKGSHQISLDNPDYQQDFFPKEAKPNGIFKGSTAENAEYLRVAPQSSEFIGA
Method: Percent inhibition was calculated by the comparison of compounds treated to control incubations.
Erlotinib, a clinically used EGFR inhibitor, was taken as the reference drug.

WI-38 cells = assay: In vitro cytotoxic activity, WI-38 cells (MTT); assay type: cell-based, human; details: for IC50: WI-38, MTT assay, human normal lung fibroblast cell line, read-out: IC50 (µM) WI-38; for Selectivity Index: WI-38 versus MDA-MB-231
Method: WI-38 cells ([…]), were obtained from American Type Culture Collection. The cells were propagated in DMEM supplemented with 10% heat-inactivated FBS (Hyclone), 10 μg/ml of insulin (Sigma), and 1% penicillin-streptomycin. All of the other chemicals and reagents were from Sigma, or Invitrogen. Cytotoxicity was determined using MTT assay following a reported procedure.

caspase-3 = assay: Active caspase-3 level in MDA-MB-231 cells (ELISA); assay type: cell-based; details: MDA-MB-231 cells treated with compound at its IC50 concentration
Method: (§1) The levels of the apoptotic markers (Bax, caspase-3) as well as the anti-apoptotic marker (Bcl-2) were assessed using ELISA colorimetric kits per the manufacturer’s protocol and referring to reported instructions[21]^,[22].
Caspases, a family of cysteineaspartic proteases, are the crucial apoptosis mediators that provide essential links in cell regulatory networks controlling cell death. Caspase-3 is the key executioner caspase which modifies proteins ultimately responsible for apoptosis.

Bax = Bax level in MDA-MB-231 cells (ELISA); assay type: cell-based; details: MDA-MB-231 cells treated with compound at its IC50 concentration
Method: as §1
(§2) Bcl-2 family comprises a group of crucial regulatory factors in apoptosis that finely tune the apoptotic switch on/off mechanism. Based on their functional and structural criteria, the members are divided into two major classes; group I proteins that are anti-apoptotic and group II proteins that are apoptotic. Group I anti-apoptotic proteins exert their function by inhibiting group II apoptotic proteins through simply binding to them. Group I proteins bind selectively to the active conformations of group II proteins to prevent them from being inserted into the mitochondria and thus cease the release of pro-apoptotic factors such as cytochrome c, ultimately aborting apoptosis. Thus, the inhibition of group I proteins and/or the activation of group II proteins can successfully induce apoptosis.

Bcl-2 = Bcl-2 level in MDA-MB-231 cells (ELISA); assay type: cell-based; details: MDA-MB-231 cells treated with compound at its IC50 concentration
Method: as §1, §2

Row | Compound | IC50 (MDA-MB-231 cells) | melting point | further results
1 | Cc1ccc(C2=C(C#N)C3(C(=O)Nc4ccc(Cl)cc43)c3c(-c4cccs4)nn(-c4ccccc4)c3N2)cc1 (stereo not shown) [Compound 6f, 5-Chloro-2-oxo-1'-phenyl-3'-(thiophen-2-yl)-6'-(p-tolyl)-1',7'-dihydrospiro[indoline-3,4'-pyrazolo[3,4-b]pyridine]-5'-carbonitrile] | 18.2 µM | 286 to 288 °C | 
2 | O=C(c1ccc(OCCN2CCCC2)cc1)C1C(c2ccccc2)C2CSC(c3ccccc3)N2C12C(=O)Nc1ccc(Cl)cc12 (stereo not shown) [compound (iv)] |  |  | IC50 ([1]; reported compound of Figure 1, reference not given, read-out: IC50, cytotoxicity against MDA-MB-231): 4.2 µM
3 | N#CC1=C(c2ccc(Cl)cc2)Nc2c(c(-c3cccs3)nn2-c2ccccc2)C12C(=O)Nc1ccc(Cl)cc12 (stereo not shown) [Compound 6h, 5-Chloro-6'-(4-chlorophenyl)-2-oxo-1'-phenyl-3'-(thiophen-2-yl)-1',7'-dihydrospiro[indoline-3,4'-pyrazolo[3,4-b]pyridine]-5'-carbonitrile] | 16.6 µM | 281 to 283 °C | 
4 | CC(C)OC(=O)C1=C(N)OC2=C(C(=O)OC2)C12C(=O)Nc1ccc(Cl)cc12 (stereo not shown) [compound (i)] |  |  | IC50 ([1]; read-out: IC50, cytotoxic activity against MDA-MB-231): 11 µM
5 | N#CC1=C(c2ccc(Cl)cc2)Nc2c(c(-c3cccs3)nn2-c2ccccc2)C12C(=O)Nc1ccccc12 (stereo not shown) [Compound 6d, 6'-(4-Chlorophenyl)-2-oxo-1'-phenyl-3'-(thiophen-2-yl)-1',7'-dihydrospiro[indoline-3,4'-pyrazolo[3,4-b]pyridine]-5'-carbonitrile] | 12 µM | 279 to 281 °C | IC50 (EGFR): 0.36 ± 0.02 µM
6 | Cc1ccc(C2=C(C#N)C3(C(=O)Nc4ccccc43)c3c(-c4cccs4)nn(-c4ccccc4)c3N2)cc1 (stereo not shown) [Compound 6b, 2-Oxo-1'-phenyl-3'-(thiophen-2-yl)-6'-(p-tolyl)-1',7'-dihydrospiro[indoline-3,4'-pyrazolo[3,4-b]pyridine]-5'-carbonitrile] | 29.7 µM | 285 to 287 °C | 
7 | COc1ccc2c(c1)C1(C(=O)N2)C(C#N)=C(c2ccccc2)Nc2c1c(-c1cccs1)nn2-c1ccccc1 (stereo not shown) [Compound 6m, 5-Methoxy-2-oxo-1',6'-diphenyl-3'-(thiophen-2-yl)-1',7'-dihydrospiro[indoline-3,4'-pyrazolo[3,4-b]pyridine]-5'-carbonitrile] | 17.5 µM | 276 to 278 °C | 
8 | COc1ccc(C2=C(C#N)C3(C(=O)Nc4ccc(Cl)cc43)c3c(-c4cccs4)nn(-c4ccccc4)c3N2)cc1 (stereo not shown) [Compound 6g, 5-Chloro-6'-(4-methoxyphenyl)-2-oxo-1'-phenyl-3'-(thiophen-2-yl)-1',7'-dihydrospiro[indoline-3,4'-pyrazolo[3,4-b]pyridine]-5'-carbonitrile] | 24.1 µM | > 300 °C | 

More lines, main results first:

Row | IC50 (MDA-MB-231 cells) | melting point | Compound | further results
9 | > 50 µM | 255 to 257 °C | COc1ccc2c(c1)C1(C(=O)N2)C(C#N)=C(c2ccc(Cl)cc2)Nc2c1c(-c1cccs1)nn2-c1ccccc1 (stereo not shown) [Compound 6p, 6'-(4-Chlorophenyl)-5-methoxy-2-oxo-1'-phenyl-3'-(thiophen-2-yl)-1',7'-dihydrospiro[indoline-3,4'-pyrazolo[3,4-b]pyridine]-5'-carbonitrile] | 
10 | 12.7 µM | > 300 °C | COc1ccc(C2=C(C#N)C3(C(=O)Nc4ccc(Br)cc43)c3c(-c4cccs4)nn(-c4ccccc4)c3N2)cc1 (stereo not shown) [Compound 6k, 5-Bromo-6'-(4-methoxyphenyl)-2-oxo-1'-phenyl-3'-(thiophen-2-yl)-1',7'-dihydrospiro[indoline-3,4'-pyrazolo[3,4-b]pyridine]-5'-carbonitrile] | IC50 (EGFR): 0.31 ± 0.02 µM
11 | 0.12 µM |  | COc1cccc2c1C(=O)c1c(O)c3c(c(O)c1C2=O)C[C@@](O)(C(=O)CO)C[C@@H]3O[C@H]1C[C@H](N)[C@H](O)[C@H](C)O1 [Adriamycin, reference compound] | 
12 | 37.8 µM | 296 to 298 °C | COc1ccc(C2=C(C#N)C3(C(=O)Nc4ccccc43)c3c(-c4cccs4)nn(-c4ccccc4)c3N2)cc1 (stereo not shown) [Compound 6c, 6'-(4-Methoxyphenyl)-2-oxo-1'-phenyl-3'-(thiophen-2-yl)-1',7'-dihydrospiro[indoline-3,4'-pyrazolo[3,4-b]pyridine]-5'-carbonitrile] | 
13 | > 50 µM | 279 to 281 °C | COc1ccc(C2=C(C#N)C3(C(=O)Nc4ccc(OC)cc43)c3c(-c4cccs4)nn(-c4ccccc4)c3N2)cc1 (stereo not shown) [Compound 6o, 5-Methoxy-6'-(4-methoxyphenyl)-2-oxo-1'-phenyl-3'-(thiophen-2-yl)-1',7'-dihydrospiro[indoline-3,4'-pyrazolo[3,4-b]pyridine]-5'-carbonitrile] | 
14 | 6.7 µM |  | N#CC1=C(c2ccccc2)Nc2c(c(-c3cccs3)nn2-c2ccccc2)C12C(=O)Nc1ccccc12 (stereo not shown) [Compound 6a, 2-Oxo-1',6'-diphenyl-3'-(thiophen-2-yl)-1',7'-dihydrospiro[indoline-3,4'-pyrazolo[3,4-b]pyridine]-5'-carbonitrile] | IC50 (WI-38 cells): 78.1 µM; Selectivity Index (WI-38 cells): 11.7; Caspase-3 (caspase-3): 0.3501 ng/mL; Bax (Bax): 405.5 pg/mL; Bax, number of folds of control (Bax): 506.8 folds; Bcl-2 (Bcl-2): 0.3958 ng/mL; Bcl-2, number of folds of control (Bcl-2): 0.147 folds; Bcl-2 expression compared to basal level in the control (Bcl-2): 14.7%; IC50 (EGFR): 0.43 ± 0.04 µM
15 | 30.6 µM | 293 to 294 °C | N#CC1=C(c2ccc(Cl)cc2)Nc2c(c(-c3cccs3)nn2-c2ccccc2)C12C(=O)Nc1ccc(Br)cc12 (stereo not shown) [Compound 6l, 5-Bromo-6'-(4-chlorophenyl)-2-oxo-1'-phenyl-3'-(thiophen-2-yl)-1',7'-dihydrospiro[indoline-3,4'-pyrazolo[3,4-b]pyridine]-5'-carbonitrile] | 
16 | 6.7 µM |  | N#CC1=C(c2ccccc2)Nc2c(c(-c3cccs3)nn2-c2ccccc2)C12C(=O)Nc1ccc(Br)cc12 (stereo not shown) [Compound 6i, 5-Bromo-2-oxo-1',6'-diphenyl-3'-(thiophen-2-yl)-1',7'-dihydrospiro[indoline-3,4'-pyrazolo[3,4-b]pyridine]-5'-carbonitrile] | IC50 (WI-38 cells): 39.3 µM; Selectivity Index (WI-38 cells): 5.9; IC50 (EGFR): 0.12 ± 0.01 µM
17 | 13.5 µM | 282 to 284 °C | Cc1ccc(C2=C(C#N)C3(C(=O)Nc4ccc(Br)cc43)c3c(-c4cccs4)nn(-c4ccccc4)c3N2)cc1 (stereo not shown) [Compound 6j, 5-Bromo-2-oxo-1'-phenyl-3'-(thiophen-2-yl)-6'-(p-tolyl)-1',7'-dihydrospiro[indoline-3,4'-pyrazolo[3,4-b]pyridine]-5'-carbonitrile] | IC50 (EGFR): 0.51 ± 0.04 µM
18 | > 50 µM | 268 to 269 °C | COc1ccc2c(c1)C1(C(=O)N2)C(C#N)=C(c2ccc(C)cc2)Nc2c1c(-c1cccs1)nn2-c1ccccc1 (stereo not shown) [Compound 6n, 5-Methoxy-2-oxo-1'-phenyl-3'-(thiophen-2-yl)-6'-(p-tolyl)-1',7'-dihydrospiro[indoline-3,4'-pyrazolo[3,4-b]pyridine]-5'-carbonitrile] | 
